The source of these data is ChEMBL document CHEMBL5512688 (J Med Chem, 2024).

One may read the IC50 as the concentration needed to halve the response being measured. The term AUC(0-t) denotes exposure summed from dosing to a finite time, without extrapolation to infinity. Read a low AUC(0-t) as low exposure. As usually defined, the half-life is how long it takes for the measured level to halve. A lower half-life goes with rapid decline. Usually bioavailability stands for the share of a dose that reaches the circulation, judged against a reference dose that is usually intravenous. Lower therefore signals poor availability. By inhibition is commonly meant the relative decrease from the control value, in per cent.

Data set [1] has as its target T1, Wee1-like protein kinase (Homo sapiens, UniProt P30291). As to the kind of experiment: Inhibition of human Wee1 (215 to 647 residues) using polyornithine/tyrosine (4:1) as substrate incubated for 5 mins in presence of ATP by micro beta plate reader analysis.
Target sequence in this assay (P30291 whole entry, the tested form may be a part): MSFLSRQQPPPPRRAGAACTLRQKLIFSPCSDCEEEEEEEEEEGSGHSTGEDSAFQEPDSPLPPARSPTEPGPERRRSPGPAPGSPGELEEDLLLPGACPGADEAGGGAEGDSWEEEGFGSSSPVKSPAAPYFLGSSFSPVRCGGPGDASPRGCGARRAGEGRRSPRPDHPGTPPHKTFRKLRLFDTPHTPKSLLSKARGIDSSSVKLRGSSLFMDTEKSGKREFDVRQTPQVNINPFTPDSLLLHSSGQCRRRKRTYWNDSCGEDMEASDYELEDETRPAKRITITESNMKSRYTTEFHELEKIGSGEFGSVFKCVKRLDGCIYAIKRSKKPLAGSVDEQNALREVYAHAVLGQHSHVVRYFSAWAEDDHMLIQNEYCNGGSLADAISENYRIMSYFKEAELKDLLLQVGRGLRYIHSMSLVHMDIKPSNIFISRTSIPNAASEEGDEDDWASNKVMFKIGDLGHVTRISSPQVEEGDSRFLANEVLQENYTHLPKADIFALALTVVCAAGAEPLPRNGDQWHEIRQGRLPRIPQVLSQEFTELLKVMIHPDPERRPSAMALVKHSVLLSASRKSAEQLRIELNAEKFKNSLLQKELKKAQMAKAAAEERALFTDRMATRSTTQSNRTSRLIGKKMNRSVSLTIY
The subject of data set [2] is A-427. Briefly: Antiproliferative activity against human A-427 cells assessed as inhibition of cell growth incubated for 72 hrs by CCK-8 assay. It is filed as functional, cell-based. The conditions noted are these: A-427, 72 h. (In general: Tetrazolium dyes change colour on reduction, which living cells bring about.)
Data set [3] can be described thus: Metabolic stability in human liver microsome assessed as parent compound remaining measured at 60 mins by LCMS/MS analysis. It is filed as ADME. The conditions noted are these: liver microsomes, read-out: Stability. (Liver microsomes are vesicles of endoplasmic reticulum, rich in cytochrome P450 enzymes.)
The nature of data set [4]: AUC (0 to 24 hrs) in ICR mouse at 60 mg/kg, IG measured upto 24 hrs by LC-MS/MS analysis. It is filed as ADME, organism-based. The conditions noted are these: in vivo, po.
Data set [5] in a line: Half life in ICR mouse at 60 mg/kg, IG measured upto 24 hrs by LC-MS/MS analysis. In kind it is ADME, organism-based. The note with it: in vivo, po.
Data set [6] in a line: Bioavailability in ICR mouse at 60 mg/kg, IG measured upto 24 hrs by LC-MS/MS analysis. It is filed as ADME, organism-based. The conditions noted are these: in vivo, po.
A further data set has as its system LoVo. Briefly: Antiproliferative activity against human LoVo cells assessed as inhibition of cell growth incubated for 72 hrs by CCK-8 method. In kind it is functional, cell-based.
Data set [7] concerns the target T1, Wee1-like protein kinase. Briefly: Inhibition of Wee1 in human U2OS cells assessed as reduction in CDK1 phosphorylation measured for 1 hr by Western blot analysis. It is filed as cell-based.
Target sequence in this assay (P30291 whole entry, the tested form may be a part): as above
The target of data set [8] is T1, Wee1-like protein kinase. Briefly: Inhibition of Wee1 (unknown origin) at 1 uM relative to control.
Target sequence in this assay (P30291 whole entry, looked up, the tested form may be a part): as the sequence (P30291 whole entry, the tested form may be a part) above
The target of data set [9] is T2, Cyclin-G-associated kinase (Homo sapiens) (UniProt O14976).
T2 sequence (whole entry): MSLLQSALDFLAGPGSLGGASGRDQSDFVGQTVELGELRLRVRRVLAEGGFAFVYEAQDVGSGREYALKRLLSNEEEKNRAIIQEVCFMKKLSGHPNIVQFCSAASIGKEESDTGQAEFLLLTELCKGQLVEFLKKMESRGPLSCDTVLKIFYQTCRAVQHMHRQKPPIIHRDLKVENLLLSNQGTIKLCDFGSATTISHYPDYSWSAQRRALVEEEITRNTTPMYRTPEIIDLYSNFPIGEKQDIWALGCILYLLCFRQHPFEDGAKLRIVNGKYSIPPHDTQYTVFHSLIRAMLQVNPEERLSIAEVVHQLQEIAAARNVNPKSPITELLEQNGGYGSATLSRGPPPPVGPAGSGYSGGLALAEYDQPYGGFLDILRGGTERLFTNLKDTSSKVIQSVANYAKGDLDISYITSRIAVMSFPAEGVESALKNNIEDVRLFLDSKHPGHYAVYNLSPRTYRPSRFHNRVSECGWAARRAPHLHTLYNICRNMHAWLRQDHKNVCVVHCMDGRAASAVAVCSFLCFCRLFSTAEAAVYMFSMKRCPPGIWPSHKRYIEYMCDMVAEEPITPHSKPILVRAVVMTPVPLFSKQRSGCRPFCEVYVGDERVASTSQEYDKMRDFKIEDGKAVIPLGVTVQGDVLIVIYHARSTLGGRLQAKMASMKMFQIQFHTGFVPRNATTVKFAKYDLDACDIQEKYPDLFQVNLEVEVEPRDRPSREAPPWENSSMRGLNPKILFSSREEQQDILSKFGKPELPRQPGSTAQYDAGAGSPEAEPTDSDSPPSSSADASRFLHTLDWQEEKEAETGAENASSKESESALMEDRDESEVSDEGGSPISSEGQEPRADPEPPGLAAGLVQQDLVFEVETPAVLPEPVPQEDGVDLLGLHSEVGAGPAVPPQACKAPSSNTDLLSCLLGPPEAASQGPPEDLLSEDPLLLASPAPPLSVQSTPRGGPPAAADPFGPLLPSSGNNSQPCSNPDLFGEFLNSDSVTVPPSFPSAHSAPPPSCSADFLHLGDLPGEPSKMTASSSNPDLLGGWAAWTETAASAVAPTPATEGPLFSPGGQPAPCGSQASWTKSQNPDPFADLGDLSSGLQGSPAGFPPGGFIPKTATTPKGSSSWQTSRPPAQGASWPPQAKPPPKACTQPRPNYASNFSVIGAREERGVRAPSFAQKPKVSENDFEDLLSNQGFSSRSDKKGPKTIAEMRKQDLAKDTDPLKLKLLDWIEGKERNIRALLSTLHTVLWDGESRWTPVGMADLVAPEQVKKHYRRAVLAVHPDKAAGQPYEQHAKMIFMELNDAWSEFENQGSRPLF
Briefly: Inhibition of GAK (unknown origin) at 1 uM relative to control.

Data set [10] relates to A-427. Briefly: Induction of apoptosis in human A-427 cells assessed as viable cells at 200 nM measured for 48 hrs by Annexin V/PI double staining based flow cytometry analysis (reference value: 97.7%). It is filed as functional. The conditions noted are these: read-out: Activity. In general terms: In flow cytometry, cells or beads pass a laser one at a time.
The subject of data set [11] is A-427. As to the kind of experiment: Induction of apoptosis in human A-427 cells assessed as late apoptotic cells at 200 nM measured for 48 hrs by Annexin V/PI double staining based flow cytometry analysis (reference value: 0.21%). In kind it is functional.
Data set [12] concerns A-427. As to the kind of experiment: Induction of apoptosis in human A-427 cells assessed as late apoptotic cells at 400 nM measured for 48 hrs by Annexin V/PI double staining based flow cytometry analysis (reference value: 0.21%). It is filed as functional.
Data set [13] relates to A-427. As to the kind of experiment: Induction of apoptosis in human A-427 cells assessed as viable cells at 800 nM measured for 48 hrs by Annexin V/PI double staining based flow cytometry analysis (reference value: 97.7%). The note with it: read-out: Activity. It is filed as functional.
The subject of data set [14] is A-427. As to the kind of experiment: Induction of apoptosis in human A-427 cells assessed as early apoptotic cells at 800 nM measured for 48 hrs by Annexin V/PI double staining based flow cytometry analysis (reference value: 1.96%). In kind it is functional.
In data set [15] the test system is A-427. Briefly: Induction of apoptosis in human A-427 cells assessed as late apoptotic cells at 800 nM measured for 48 hrs by Annexin V/PI double staining based flow cytometry analysis (reference value: 0.21%). In kind it is functional.
The test system of data set [16] is A-427. As to the kind of experiment: Induction of apoptosis in human A-427 cells assessed as necrotic cells at 800 nM measured for 48 hrs by Annexin V/PI double staining based flow cytometry analysis (reference value: 0.098%). In kind it is functional.
The test system of data set [17] is A-427. Briefly: Induction of cell cycle arrest in human A-427 cells assessed as accumulation of cells at G0/G1 phase at 50 nM measured for 48 hrs by flow cytometry analysis (reference value: 49.5%). It is filed as functional.
Data set [18] deals with A-427. As to the kind of experiment: Induction of cell cycle arrest in human A-427 cells assessed as accumulation of cells at S phase at 50 nM measured for 48 hrs by flow cytometry analysis (reference value: 4 %). It is filed as functional.
Data set [19] deals with A-427. As to the kind of experiment: Induction of cell cycle arrest in human A-427 cells assessed as accumulation of cells at G2/M phase at 50 nM measured for 48 hrs by flow cytometry analysis (reference value: 10.9 %). In kind it is functional.
Data set [20] relates to A-427. Briefly: Induction of cell cycle arrest in human A-427 cells assessed as accumulation of cells at G2/M phase at 100 nM measured for 48 hrs by flow cytometry analysis (reference value: 10.9 %). In kind it is functional.
Data set [21] concerns A-427. Briefly: Induction of cell cycle arrest in human A-427 cells assessed as accumulation of cells at G0/G1 phase at 200 nM measured for 48 hrs by flow cytometry analysis (reference value: 49.5%). In kind it is functional.
The subject of data set [22] is A-427. Briefly: Induction of cell cycle arrest in human A-427 cells assessed as accumulation of cells at S phase at 200 nM measured for 48 hrs by flow cytometry analysis (reference value: 4 %). In kind it is functional.

In the case of `C=CCn1c(=O)c2cnc(Nc3ccc(N4CCN(C)CC4)cc3)nc2n1-c1cccc(-c2cnccn2)n1`, the IC50 came to 2.1 nM on Wee1-like protein kinase [1], 84 nM in the data set with A-427 [2], 82 nM in the data set on LoVo and 430 nM at Wee1-like protein kinase [7]. Further, in data set [3], the remaining at 1 h is 58.5%. This molecule also registered an AUC(0-t) at 24 h in [4] of 4340 ng·h/mL. In addition, in data set [5], the half-life was 5.94 h. Moreover, in [6], the bioavailability came to 61.5%. The inhibition against Wee1-like protein kinase [8] was 111%; in data set [9] it was greater than 90%. For the same molecule, the viability at 0.2 µM in the data set with A-427 [10] is 60.6%. Also, the Activity with A-427 [11] is given as 25.6%; in the data set on A-427 [12] it was 29.2%; with A-427 [14] it was 10.1%; in the data set on A-427 [15], 35.4%; in the data set with A-427 [16], 3.64%; with A-427 [17], 40.9%. The Activity is listed as 46.7% in the data set with A-427 [18]; 6.57% in the data set with A-427 [19]; 7.09% in the data set on A-427 [20]; 31.6% with A-427 [21]; 59.1% in the data set with A-427 [22]. For the same molecule, the viability at 0.8 µM in the data set on A-427 [13] stood at 50.9%.
